The record followed here is patent US10759793B2, “2-(pyrazolopyridin-3-yl)pyrimidine derivatives as JAK inhibitors” (ALMIRALL, S.A., priority 2015, dated 2020).

By pIC50 is commonly meant the negative decadic logarithm of the IC50, by convention in mol/L. Low readings indicate a high IC50, high ones a low IC50.

Common to all, as to format: biochemical
One assay addresses JAK3 (Homo sapiens (Human), UniProt P52333). Put plainly: In vitro JAK kinase assay (TR-FRET), JAK3. The following applies: catalytic domain aa 795-1124, GST-fusion; ATP 0.6 μM; peptide 140 nM; 30 minutes at room temperature. The method, then: (§1) Compounds were screened for their ability to inhibit JAK1, JAK2 and JAK3 using the assays as indicated below. […] The enzymatic activity was assayed using as substrate a biotinylated peptide, poly (GT)-Biotin (CisBio). […] The degree of phosphorylation was detected by TR-FRET (time-resolved fluorescence energy transfer). […] The enzymatic reactions took place for 30 minutes at room temperature. […] Incubate for 3 h and read on Victor 2V spectrofluorometer (Perkin Elmer) set to read fluorescence resonance energy transfer.
On the technique in general: TR-FRET usually uses a lanthanide donor and a delayed reading to cut background.

The target in another assay is JAK2 (Homo sapiens (Human), UniProt O60674). The experiment in a line: In vitro JAK kinase assay (TR-FRET), JAK2. The note with it: catalytic domain aa 826-1132, GST-fusion; ATP 0.2 μM; peptide 20 nM; 30 minutes at room temperature. The method, then: as §1
Another assay deals with JAK1 (Homo sapiens (Human), UniProt P23458). Put plainly: In vitro JAK kinase assay (TR-FRET), JAK1. The following applies: catalytic domain aa 850-1154, GST-fusion; ATP 3 μM; peptide 60 nM; 30 minutes at room temperature. The method, then: as §1

pIC50: −log10 of the molar value.

JAK1, sequence (P23458 850-1154): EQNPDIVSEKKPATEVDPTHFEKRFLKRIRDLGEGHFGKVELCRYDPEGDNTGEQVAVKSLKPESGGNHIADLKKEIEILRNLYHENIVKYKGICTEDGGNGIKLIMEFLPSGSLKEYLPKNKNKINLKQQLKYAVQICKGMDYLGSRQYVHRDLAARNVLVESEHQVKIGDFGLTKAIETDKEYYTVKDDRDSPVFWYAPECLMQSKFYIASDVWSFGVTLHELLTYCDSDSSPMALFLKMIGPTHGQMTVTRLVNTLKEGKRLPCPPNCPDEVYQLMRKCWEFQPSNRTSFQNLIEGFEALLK
JAK2, sequence (O60674 826-1132): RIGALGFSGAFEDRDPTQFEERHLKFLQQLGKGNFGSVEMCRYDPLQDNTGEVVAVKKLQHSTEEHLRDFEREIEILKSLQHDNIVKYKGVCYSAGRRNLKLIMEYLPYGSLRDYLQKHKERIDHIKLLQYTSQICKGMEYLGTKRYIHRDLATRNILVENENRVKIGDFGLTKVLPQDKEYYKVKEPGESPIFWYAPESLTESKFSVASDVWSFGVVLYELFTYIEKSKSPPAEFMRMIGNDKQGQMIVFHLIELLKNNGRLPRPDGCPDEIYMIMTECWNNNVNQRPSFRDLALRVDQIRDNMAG
JAK3, sequence (P52333 795-1124): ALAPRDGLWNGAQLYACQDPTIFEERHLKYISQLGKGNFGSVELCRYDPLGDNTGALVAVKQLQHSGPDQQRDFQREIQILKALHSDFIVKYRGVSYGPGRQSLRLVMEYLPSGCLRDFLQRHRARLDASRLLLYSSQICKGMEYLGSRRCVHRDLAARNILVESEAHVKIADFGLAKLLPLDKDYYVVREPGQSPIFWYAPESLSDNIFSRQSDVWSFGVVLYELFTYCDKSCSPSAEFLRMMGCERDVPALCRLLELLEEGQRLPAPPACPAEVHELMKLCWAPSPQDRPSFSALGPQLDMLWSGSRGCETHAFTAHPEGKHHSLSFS

With “3-((3R)-3-{[5-Fluoro-6-(4-hydroxypiperidin-1-yl)-2-pyrazolo[1,5-a]pyridin-3-ylpyrimidin-4-yl]oxy}piperidin-1-yl)-3-oxopropanenitrile [Example 76]”, the negative logarithm of the IC50 (pIC50) at JAK3 was 8.30; on JAK2 it was 9.00; on JAK1, 8.05.
As to “3-{(3R)-3-[(6-Methoxy-2-pyrazolo[1,5-a]pyridin-3-ylpyrimidin-4-yl)amino]piperidin-1-yl}-3-oxopropanenitrile [Example 95]”, the pIC50 is 8.15 at JAK3, 8.52 on JAK2 and 8.52 against JAK1.
For `N#CC[C@H]1CC[C@H](Nc2nc(-c3cnn4ccccc34)nc(N3CCC(O)CC3)c2F)CC1` [Example 1, (Trans-4-{[5-fluoro-6-(4-hydroxypiperidin-1-yl)-2-pyrazolo[1,5-a]pyridin-3-ylpyrimidin-4-yl]amino}cyclohexyl)acetonitrile], the pIC50 was 8.52 against JAK3, 9.30 against JAK2 and 7.92 on JAK1.
The matching figures for `N#CC[C@H]1CC[C@H](Nc2nc(-c3cnn4ccccc34)nc(N3CCC(N)CC3)c2F)CC1` [Example 2, (Trans-4-{[6-(4-aminopiperidin-1-yl)-5-fluoro-2-pyrazolo[1,5-a]pyridin-3-ylpyrimidin-4-yl]amino}cyclohexyl)acetonitrile]: 8.40, 9.00 and 7.09.
Turning to `N#CC[C@H]1CC[C@H](Nc2nc(-c3cnn4ccccc34)nc(N3CCNCC3)c2F)CC1` [Example 3, {Trans-4-[(5-fluoro-6-piperazin-1-yl-2-pyrazolo[1,5-a]pyridin-3-ylpyrimidin-4-yl)amino]cyclohexyl}acetonitrile], the values for the negative logarithm of the IC50 (pIC50) at JAK3, on JAK2 and against JAK1 were 8.40, 9.10 and 6.82, respectively.
As for `CN(C)C1CCN(c2nc(-c3cnn4ccccc34)nc(N[C@H]3CC[C@H](CC#N)CC3)c2F)CC1` [Example 4, [Trans-4-({6-[4-(dimethylamino)piperidin-1-yl]-5-fluoro-2-pyrazolo[1,5-a]pyridin-3-ylpyrimidin-4-yl}amino)cyclohexyl]acetonitrile], the pIC50 on JAK3 is 8.40; against JAK2, 9.00; on JAK1, 6.66.
Regarding `N#CC[C@H]1CC[C@H](Nc2nc(-c3cnn4ccccc34)nc(OCCO)c2F)CC1` [Example 5, (Trans-4-{[5-fluoro-6-(2-hydroxyethoxy)-2-pyrazolo[1,5-a]pyridin-3-ylpyrimidin-4-yl]amino}cyclohexyl)acetonitrile], the pIC50 against JAK3 is 8.70; on JAK2 it was 9.30; against JAK1, 8.05.
For `N#CC[C@H]1CC[C@H](Nc2nc(-c3cnn4ccccc34)nc(OC[C@@H](O)CO)c2F)CC1` [Example 6, {Trans-4-[(6-{[(2S)-2,3-dihydroxypropyl]oxy}-5-fluoro-2-pyrazolo[1,5-a]pyridin-3-ylpyrimidin-4-yl)amino]cyclohexyl}acetonitrile], the pIC50 is 8.52 against JAK3, 9.15 on JAK2 and 7.82 against JAK1.
The matching figures for `N#CC[C@H]1CC[C@H](Nc2nc(-c3cnn4ccccc34)nc(OC[C@H](O)CO)c2F)CC1` [Example 7, {Trans-4-[(6-{[(2R)-2,3-dihydroxypropyl]oxy}-5-fluoro-2-pyrazolo[1,5-a]pyridin-3-ylpyrimidin-4-yl)amino]cyclohexyl}acetonitrile]: 8.70, 9.30 and 8.00.
Turning to `N#CC[C@H]1CC[C@H](Nc2nc(-c3cnn4ccccc34)nc(NCCO)c2F)CC1` [Example 8, [Trans-4-({5-fluoro-6-[(2-hydroxyethyl)amino]-2-pyrazolo[1,5-a]pyridin-3-ylpyrimidin-4-yl}amino)cyclohexyl]acetonitrile], the pIC50 on JAK3 was 8.00; on JAK1, 7.80.
In the case of `CN(C)CCOc1nc(-c2cnn3ccccc23)nc(N[C@H]2CC[C@H](CC#N)CC2)c1F` [Example 9, [trans-4-({6-[2-(dimethylamino)ethoxy]-5-fluoro-2-pyrazolo[1,5-a]pyridin-3-ylpyrimidin-4-yl}amino)cyclohexyl]acetonitrile], the negative-log IC50 (pIC50) is 8.52 against JAK3, 9.15 on JAK2 and 7.07 against JAK1.
The matching figures for `C[C@H](Nc1nc(-c2cnn3ccccc23)nc(N2CCC(N)CC2)c1F)c1ccc(F)cn1` [Example 11, 6-(4-Aminopiperidin-1-yl)-5-fluoro-N-[(1S)-1-(5-fluoropyridin-2-yl)ethyl]-2-pyrazolo[1,5-a]pyridin-3-ylpyrimidin-4-amine]: 8.52, 9.00 and 7.40.
The corresponding values for `C[C@H](Nc1nc(-c2cnn3ccccc23)nc(OCCO)c1F)c1ncc(F)cn1` [Example 12, 2-[(5-Fluoro-6-{[(1S)-1-(5-fluoropyrimidin-2-yl)ethyl]amino}-2-pyrazolo[1,5-a]pyridin-3-ylpyrimidin-4-yl)oxy]ethanol] are 8.40, 9.30 and 8.40.
For the molecule `C[C@H](Nc1nc(-c2cnn3ccccc23)nc(OC[C@@H](O)CO)c1F)c1ncc(F)cn1` [Example 13, (2S)-3-[(5-fluoro-6-{[(1S)-1-(5-fluoropyrimidin-2-yl)ethyl]amino}-2-pyrazolo[1,5-a]pyridin-3-ylpyrimidin-4-yl)oxy]propane-1,2-diol], the pIC50 against JAK3 was 8.40; at JAK2 it was 9.00; against JAK1, 8.40.
Consider `N#CCC(=O)N1CCC[C@@H](Nc2nc(-c3cnn4ccccc34)nc(OCCO)c2F)C1` [Example 14, 3-((3R)-3-{[5-fluoro-6-(2-hydroxyethoxy)-2-pyrazolo[1,5-a]pyridin-3-ylpyrimidin-4-yl]amino}piperidin-1-yl)-3-oxopropanenitrile], for which the pIC50 was 9.00 on JAK3, 9.30 at JAK2 and 9.00 against JAK1.
Consider `CCCCOc1nc(-c2cnn3ccccc23)nc(N[C@@H]2CCCN(C(=O)CC#N)C2)c1F` [Example 15, 3-{(3R)-3-[(6-butoxy-5-fluoro-2-pyrazolo[1,5-a]pyridin-3-ylpyrimidin-4-yl)amino]piperidin-1-yl}-3-oxopropanenitrile], for which the pIC50 against JAK3 was 8.70; against JAK2, 9.00; on JAK1, 7.89.
On JAK1, `COc1ccc(-c2nc(-c3cnn4ccccc34)nc(N[C@@H]3CCCN(C(=O)CO)C3)c2F)cn1` [Example 35, 2-((3R)-3-{[5-Fluoro-6-(6-methoxypyridin-3-yl)-2-pyrazolo[1,5-a]pyridin-3-ylpyrimidin-4-yl]amino}piperidin-1-yl)-2-oxoethanol] had a negative logarithm of the IC50 (pIC50) of 8.15.
For the molecule `NC(=O)c1nc(-c2cnn3ccccc23)nc(N[C@@H]2CCCN(C(=O)CO)C2)c1F` [Example 48, 5-Fluoro-6-{[(3R)-1-glycoloylpiperidin-3-yl]amino}-2-pyrazolo[1,5-a]pyridin-3-ylpyrimidine-4-carboxamide], the pIC50 on JAK3 is 8.30; at JAK1, 7.89.
The molecule `N#Cc1cnc(N2CCC[C@@H](Nc3nc(-c4cnn5ccccc45)nc(OCCO)c3F)C2)cn1` [Example 54, 5-((3R)-3-{[5-fluoro-6-(2-hydroxyethoxy)-2-pyrazolo[1,5-a]pyridin-3-ylpyrimidin-4-yl]amino}piperidin-1-yl)pyrazine-2-carbonitrile] had a pIC50 against JAK1 of 8.15.
`N#CCC(=O)N1CCC[C@@H](Oc2nc(-c3cnn4ccccc34)nc(OCCO)c2F)C1` [Example 66, 3-((3R)-3-{[5-Fluoro-6-(2-hydroxyethoxy)-2-pyrazolo[1,5-a]pyridin-3-ylpyrimidin-4-yl]oxy}piperidin-1-yl)-3-oxopropanenitrile]: the pIC50 on JAK3 is 8.40; against JAK1 it was 8.00.
As to `O=C(O)c1ccc(-c2nc(-c3cnn4ccccc34)nc(N[C@@H]3CCCN(C(=O)CO)C3)c2F)cn1` [Example 79, 5-(5-Fluoro-6-{[(3R)-1-glycoloylpiperidin-3-yl]amino}-2-pyrazolo[1,5-a]pyridin-3-ylpyrimidin-4-yl)pyridine-2-carboxylic acid], the pIC50 at JAK3 was 8.22; against JAK1 it was 8.70.
The matching figures for `CCOCCOc1nc(-c2cnn3ccccc23)nc(N[C@@H]2CCCN(C(=O)CO)C2)c1F` [Example 83, 2-((3R)-3-{[6-(2-Ethoxyethoxy)-5-fluoro-2-pyrazolo[1,5-a]pyridin-3-ylpyrimidin-4-yl]amino}piperidin-1-yl)-2-oxoethanol]: 8.40 and 7.49.
As for `O=C(CO)N1CCC[C@@H](Nc2nc(-c3cnn4ccccc34)nc(-c3ccc(CO)nc3)c2F)C1` [Example 84, 2-[(3R)-3-({5-Fluoro-6-[6-(hydroxymethyl)pyridin-3-yl]-2-pyrazolo[1,5-a]pyridin-3-ylpyrimidin-4-yl}amino)piperidin-1-yl]-2-oxoethanol], the pIC50 against JAK3 is 8.30; against JAK1, 8.70.
The corresponding values for `COc1cc(-c2cc(N[C@@H]3CCCN(C(=O)CO)C3)nc(-c3cnn4ccccc34)n2)ccn1` [Example 98, 2-((3R)-3-{[6-(2-Methoxypyridin-4-yl)-2-pyrazolo[1,5-a]pyridin-3-ylpyrimidin-4-yl]amino}piperidin-1-yl)-2-oxoethanol] are 8.30 and 8.52.
